Source: patent US20260250318A1, “COMPOSITIONS AND METHODS FOR CROSSING THE BLOOD BRAIN BARRIER” (VOYAGER THERAPEUTICS, INC., priority 2022, published 2026)

Key:
Conditions in all cases: synthetic library passage 3, intravenous, relative to wild-type AAV9
[1] = tested on: brain, spinal cord, and DRG of the NHPs; test: NGS fold enrichment of synthetic library (passage 3) in NHPs, first cross-species screen; assay type: in vivo, cynomolgus macaques (Macaca fascicularis)
In short: (§1)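 Passage-3 synthetic capsid library given intravenously […] to NHPs (2-4 years) and BALB/c or C57Bl/6 mice (n=3, 6-8 weeks). After e.g. 28 days, tissue RNA was RT-PCR amplified and NGS-sequenced; values are fold enrichment of each variant relative to wild-type AAV9.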

[2] = tested on: brain; test: NGS fold enrichment of synthetic library (passage 3) in BALB/c mice, first cross-species screen; assay type: in vivo
In short: as §1

[3] = tested on: brain; test: NGS fold enrichment of synthetic library (passage 3) in C57Bl/6 mice, first cross-species screen; assay type: in vivo
In short: as §1

[4] = RNA from spinal cord of NHPs, NGS
[5] = RNA from brain of BALB/c mice, NGS
[6] = RNA from brain of C57Bl/6 mice, NGS

Sequence | Fold enrichment over AAV9 in the brain of NHPs ([1]; RNA NGS, brain of NHPs) [fold] | Fold enrichment over AAV9 in the spinal cord of NHPs ([1]; RNA NGS, spinal cord of NHPs) [fold] | Fold enrichment over AAV9 in the brain of Mice (BALB/c) ([2]; RNA NGS, brain of BALB/c mice) [fold] | Fold enrichment over AAV9 in the brain of Mice (C57Bl/6) ([3]; RNA NGS, brain of C57Bl/6 mice) [fold] | Fold enrichment over AAV9 in the brain of NHPs ([1]; RNA from brain of NHPs, NGS) [fold] | Fold enrichment over AAV9 in the spinal cord of NHPs [1, 4] [fold] | Fold enrichment over AAV9 in the brain of Mice (BALB/c) [2, 5] [fold] | Fold enrichment over AAV9 in the brain of Mice (C57Bl/6) [3, 6] [fold]
GSGTVHAATQNQQT | 1.721 | 1.676 | 0.476 | 0.563 |  |  |  | 
GSGVHGVSSQNQQT | 1.781 | 4.519 | 0.951 | 1.504 |  |  |  | 
GSGVMTHVLQNQQT | 2.692 | 0.347 | 0.533 | 0.370 |  |  |  | 
GSGVQHSLPQNQQT | 1.639 | 0.764 | 0.387 | 0.440 |  |  |  | 
GSGVSARMVQNQQT |  |  |  |  | 1.299 | 0.624 | 0.697 | 0.870
GSGVSTQLLQNQQT |  |  |  |  | 1.367 | 2.467 | 0.509 | 0.928
GSGVSTYNIQNQQT | 3.609 | 2.912 | 0.520 | 0.769 |  |  |  | 
GSGYASHVQQNQQT | 2.146 | 3.038 | 0.758 | 1.157 |  |  |  | 
GSGYKAARPQNQQT | 1.803 | 0.000 | 0.337 | 1.418 |  |  |  | 
GSGYKDTYGQNQQT | 1.091 | 0.854 | 0.448 | 0.717 |  |  |  | 
GSGYLRESPQNQQT | 2.311 | 0.878 | 0.677 | 0.331 |  |  |  | 
GSGYNQPHLQNQQT | 1.435 | 4.512 | 0.395 | 0.711 |  |  |  | 
GSGYSMSQAQNQQT | 2.250 | 4.479 | 0.329 | 0.519 |  |  |  | 
GSGYTSLFLQNQQT | 2.710 | 0.010 | 1.044 | 0.490 |  |  |  | 
GSGYVITGSQNQQT |  |  |  |  | 1.125 | 6.271 | 0.248 | 0.971
GSHGHYASGQKQQT | 2.016 | 0.000 | 0.685 | 0.895 |  |  |  | 
GSHSQSGHGQNQQT | 1.413 | 1.240 | 0.318 | 0.696 |  |  |  | 
GSHTLVVSGQNQQT | 1.069 | 1.535 | 0.748 | 0.671 |  |  |  | 
GSIAHVGTGQNQQT | 1.696 | 1.264 | 1.045 | 0.837 |  |  |  | 
GSIAMTSHGQNQQT |  |  |  |  | 1.178 | 1.435 | 0.438 | 0.551

Sequence | Fold enrichment over AAV9 in the brain of NHPs ([1]; RNA NGS, brain of NHPs) [fold] | Fold enrichment over AAV9 in the spinal cord of NHPs ([1]; RNA NGS, spinal cord of NHPs) [fold] | Fold enrichment over AAV9 in the brain of Mice (BALB/c) ([2]; RNA NGS, brain of BALB/c mice) [fold] | Fold enrichment over AAV9 in the brain of Mice (C57Bl/6) ([3]; RNA NGS, brain of C57Bl/6 mice) [fold] | Fold enrichment over AAV9 in the brain of NHPs ([1]; RNA from brain of NHPs, NGS) [fold] | Fold enrichment over AAV9 in the spinal cord of NHPs [1, 4] [fold] | Fold enrichment over AAV9 in the brain of Mice (BALB/c) [2, 5] [fold] | Fold enrichment over AAV9 in the brain of Mice (C57Bl/6) [3, 6] [fold]
GSIGYAGQGQNQQT | 2.157 | 4.951 | 0.712 | 1.604 |  |  |  | 
GSIQYQSSGQNQQT |  |  |  |  | 1.147 | 2.601 | 1.191 | 1.074
GSITLIPSGQNQQT | 3.361 | 3.917 | 0.435 | 0.326 |  |  |  | 
GSKGVPTPGQNQQT | 2.625 | 1.292 | 0.459 | 1.452 |  |  |  | 
GSLDLGRSGQNQQT |  |  |  |  | 1.160 | 3.283 | 0.505 | 1.002
GSLFLATGGQNQQT |  |  |  |  | 1.220 | 0.000 | 0.485 | 0.775
GSLGNLQRGQNQQT | 1.003 | 0.895 | 0.385 | 0.947 |  |  |  | 
GSLHAGLSGQNQQT |  |  |  |  | 1.408 | 1.739 | 0.936 | 1.286
GSLHHDNHGQNQQT | 1.976 | 0.980 | 0.463 | 0.968 |  |  |  | 
GSLIGMQSGQNQQT | 1.656 | 6.783 | 0.392 | 0.797 |  |  |  | 
GSLKPTTLGQNQQT | 1.840 | 0.476 | 0.220 | 0.175 |  |  |  | 
GSLLISTSGQNQQT | 1.919 | 5.763 | 0.808 | 1.488 |  |  |  | 
GSLLQAHSGQNQQT | 2.182 | 1.008 | 0.748 | 0.575 |  |  |  | 
GSLLSAGMGQNQHT | 1.856 | 6.168 | 0.342 | 0.589 |  |  |  | 
GSLLTTASGQNQQT | 1.822 | 0.780 | 0.635 | 0.938 |  |  |  | 
GSLMDVHRGQNQQT |  |  |  |  | 1.150 | 0.387 | 0.238 | 1.009
GSLPRGTSDQNQQT | 2.362 | 0.000 | 0.495 | 0.453 |  |  |  | 
GSLSHMESGQNQQT | 1.120 | 0.829 | 0.265 | 0.489 |  |  |  | 
GSLSSHGVGQNQQT | 1.911 | 7.498 | 0.804 | 1.218 |  |  |  | 
GSLSTPSSGQNQQT | 2.159 | 1.279 | 0.669 | 1.094 |  |  |  | 
